Molecules are shown by their SMILES.

Experimental findings from the supplement of paper PMC11061612 are described below.

Assay in all cases: Bliss excess, mean over the matrix (fraction); higher = more synergy
The test system of test [1] is NCI-H2122 (Lung Adenocarcinoma). In outline: (§1)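 Cell lines in DMEM/F12 or RPMI with 10% FBS were plated in 1536-well plates, held 24 hours at 37°C, 5% CO2, then given two-drug dose matrices for 72 hours (DMSO typically 0.2%). Viability was read by CellTiter-Glo 2.0 luminescence and scaled as inhibition from 0 (vehicle wells) to 1 (blank wells). Combination Emax is the second-highest inhibition in the matrix; Bliss excess is observed combination effect minus expected EA + EB − EA·EB, EA and EB being single-agent effects.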

Test [2] relates to HCC2998 (Colorectal Carcinoma). The method, boiled down: as §1
The subject of test [3] is KGN (Other Solid Carcinomas). In outline:
as §1

For test [4], the system named is SNU-387 (Hepatocellular Carcinoma). In outline:
as §1

Test [5] deals with COLO-668 (Small Cell Lung Carcinoma). In outline: as §1
The test system of test [6] is A4-Fuk (B-Lymphoblastic Leukemia). The method, boiled down: as §1
For test [7], the system named is ALL-SIL (T-Lymphoblastic Leukemia). In outline:
as §1

Test [8] deals with CADO-ES1 (Ewing's Sarcoma). The method, boiled down: as §1
Test [9] has as its system MOG-G-UVW (Low Grade Glioma). The method, boiled down:
as §1

Test [10] relates to LC-1-sq (Squamous Cell Lung Carcinoma). The method, boiled down:
as §1

For test [11], the system named is SKN (Other Solid Carcinomas). In outline:
as §1

Test [12] has as its system G-401 (Other Solid Carcinomas). In outline:
as §1

The subject of test [13] is OACM5-1 (Esophageal Adenocarcinoma). The method, boiled down: as §1
Test [14] relates to SW872 (Other Solid Carcinomas). In outline: as §1
For test [15], the system named is NCI-H1838 (Lung Adenocarcinoma). In outline: as §1
In another test the test system is Hey (Ovarian Carcinoma). In outline:
as §1

The subject of test [16] is HAL-01 (B-Lymphoblastic Leukemia). In outline: as §1
The subject of test [17] is NCI-H650 (Lung Adenocarcinoma). In outline: as §1
The subject of test [18] is SK-LU-1 (Lung Adenocarcinoma). The method, boiled down: as §1
For test [19], the system named is KOPN-8 (B-Lymphoblastic Leukemia). In outline: as §1

As to `CN(CCO)CC[C@H](CSc1ccccc1)Nc1ccc(S(=O)(=O)NC(=O)c2ccc(N3CCC([C@@H](O)c4ccccc4-c4ccc(Cl)cc4)CC3)cc2)cc1S(=O)(=O)C(F)(F)F` [AZD4320] + C=CCn1c(=O)c2cnc(Nc3ccc(N4CCN(C)CC4)cc3)nc2n1-c1cccc(C(C)(C)O)n1 [AZD1775] (first compound max 1 µM, partner max 1 µM), the Bliss excess in test [1] was -0.0143; in [2] it was 0.0609; in test [3], -0.0387; in test [4] it was 0.0102; in [5], 0.0801; in test [6], -0.0107. Also, the Bliss excess in [7] was 0.0693; in [8], -0.005; in test [9], -0.0193; in [10] it was 0.0279; in test [11], 0.0666; in [12] it was -0.0058. The Bliss excess in test [13] is -0.01; in test [14] it was 0.0035; in test [15], -0.0311; in the test on Hey (Ovarian Carcinoma), -0.053; in test [16], 0.0695; in test [17], 0.0369. Moreover, the Bliss excess in [18] is -0.038; in test [19], 0.0016.
On to `CN(CCO)CC[C@H](CSc1ccccc1)Nc1ccc(S(=O)(=O)NC(=O)c2ccc(N3CCC([C@@H](O)c4ccccc4-c4ccc(Cl)cc4)CC3)cc2)cc1S(=O)(=O)C(F)(F)F` [AZD4320] + CN(C)CCCOc1ccc(-c2ccc3ncc4c(c3c2)n(C2CCOCC2)c(=O)n4C)cn1 [AZD0156] (first compound max 1 µM, 7x7, partner max 1 µM), for which the Bliss excess in test [1] was -0.0121; in test [2] it was -0.01; in test [3], -0.0231; in test [4] it was -0.0208; in test [5], 0.0435; in [6] it was -0.0077. Also, the Bliss excess is 0.0035 in test [7]; 0.0269 in test [8]; -0.0476 in [9]; 0.0065 in test [10]; -0.0296 in [11]; -0.0506 in [12]. Further, the Bliss excess in test [13] is -0.0016; in test [14] it was -0.0107; in test [15] it was 0.0135; in the test on Hey (Ovarian Carcinoma), -0.0272; in [16], 0.024; in test [17] it was -0.0182. In addition, the Bliss excess was -0.0759 in test [18] and -0.052 in test [19].
With `COc1nnc2ccc(N3CCC(c4ccc(OCCN5CCN(C)C(=O)[C@H]5C)cc4)CC3)nn12` [AZD5153] + C=CCn1c(=O)c2cnc(Nc3ccc(N4CCN(C)CC4)cc3)nc2n1-c1cccc(C(C)(C)O)n1 [AZD1775] (first compound max 1 µM, partner max 1 µM), the Bliss excess in test [1] was -0.0432; in test [2] it was -0.0083; in test [3], -0.12; in test [4], -0.107; in test [5] it was -0.0349; in [6], -0.109. The Bliss excess is -0.0289 in test [7]; -0.0483 in test [8]; -0.0518 in test [9]; -0.0288 in test [10]; -0.0027 in test [11]; -0.0526 in test [12]. In addition, the Bliss excess in test [13] is 0.0128; in [14] it was -0.0374; in test [15], -0.0531; in the test with Hey (Ovarian Carcinoma), -0.0997; in [16], -0.0938; in test [17], -0.0866. In addition, the Bliss excess in test [18] is -0.0461; in test [19] it was -0.0267.
Regarding `COc1nnc2ccc(N3CCC(c4ccc(OCCN5CCN(C)C(=O)[C@H]5C)cc4)CC3)nn12` [AZD5153] + CC1(C)CCC(CN2CCN(c3ccc(C(=O)NS(=O)(=O)c4ccc(NCC5CCOCC5)c([N+](=O)[O-])c4)c(Oc4cnc5[nH]ccc5c4)c3)CC2)=C(c2ccc(Cl)cc2)C1 [Venetoclax] (first compound max 1 µM, 7x7, partner max 1 µM), the Bliss excess in test [1] is -0.041; in [2], -0.0766; in test [3], -0.0165; in test [4], -0.0699; in test [5], 0.0229; in test [6], -0.0678. Besides, the Bliss excess in [7] was 0.0565; in test [8], -0.088; in test [9], -0.0315; in test [10], 0.0066; in test [11], -0.0295; in test [12], -0.0959. Also, the Bliss excess in test [13] is -0.0458; in test [14], -0.051; in test [15], -0.0605; with Hey (Ovarian Carcinoma) it was -0.0568; in test [16] it was -0.0804; in test [17] it was -0.132. Also, the Bliss excess in test [18] was -0.118; in [19], 0.0517.
As for `COc1nnc2ccc(N3CCC(c4ccc(OCCN5CCN(C)C(=O)[C@H]5C)cc4)CC3)nn12` [AZD5153] + CCN(CCO)CCCOc1ccc2c(Nc3cc(CC(=O)Nc4cccc(F)c4)[nH]n3)ncnc2c1 [AZD2811] (first compound max 1 µM, 7x7, partner max 1 µM), the Bliss excess in test [1] is -0.08; in test [2], -0.0288; in test [3] it was -0.0951; in test [4], -0.0837; in test [5], -0.0268; in [6] it was -0.0025. Further, the Bliss excess is 0.0139 in test [7]; -0.0493 in test [8]; -0.0313 in [9]; -0.0282 in test [10]; -0.0711 in [11]; -0.0625 in test [12]. Besides, the Bliss excess in [13] is 0.0367; in [14], -0.0335; in test [15], -0.0282; in the test with Hey (Ovarian Carcinoma) it was -0.0417; in [16], -0.0689; in [17] it was 0.0112. Further, the Bliss excess is -0.0549 in [18] and -0.0341 in test [19].
With `COc1nnc2ccc(N3CCC(c4ccc(OCCN5CCN(C)C(=O)[C@H]5C)cc4)CC3)nn12` [AZD5153] + C[C@@H]1COCCN1C2=NC(=NC(=C2)C3(CC3)[S@](=N)(=O)C)C4=C5C=CNC5=NC=C4 [AZD6738] (first compound max 1 µM, 7x7, partner max 10 µM), the Bliss excess was -0.0163 in [1]; 0.0607 in test [2]; -0.0865 in test [3]; -0.0501 in test [4]; 0.0137 in test [5]; -0.117 in test [6]. Moreover, the Bliss excess in test [7] is 0.079; in test [8] it was -0.0881; in test [9], -0.046; in test [10], 0.0175; in test [11] it was 0.0365; in test [12] it was -0.0078. In addition, the Bliss excess was 0.0593 in test [13]; -0.0383 in [14]; 0.0023 in test [15]; -0.0048 with Hey (Ovarian Carcinoma); -0.0737 in test [16]; 0.0125 in [17]. For the same molecule, the Bliss excess in test [18] is 0.0147; in [19], -0.0114.
As to `COc1nnc2ccc(N3CCC(c4ccc(OCCN5CCN(C)C(=O)[C@H]5C)cc4)CC3)nn12` [AZD5153] + Cc1c2c(nn1C)CSCc1cc(n(C)n1)CSc1cc(c3ccccc3c1)OCCCc1c(C(=O)O)n(C)c3c-2c(Cl)ccc13 [AZD5991] (first compound max 1 µM, 7x7, partner max 1 µM), the Bliss excess in test [1] is -0.0402; in test [2], 0.0352; in test [3] it was -0.0364; in test [4], -0.0082; in test [5] it was 0.0265; in test [6], -0.044. The Bliss excess in test [7] was 0.041; in [8], 0.0176; in test [9], -0.0387; in [10], 0.0198; in test [11], -0.058; in [12], 0.0312. The Bliss excess was 0.0114 in test [13]; -0.0229 in test [14]; -0.0412 in [15]; -0.0231 in the test on Hey (Ovarian Carcinoma); -0.0787 in [16]; -0.03 in test [17]. In addition, the Bliss excess is -0.061 in [18] and 0.0112 in test [19].
